From US20260226026A1, “COMPOUND AS CTPS1 INHIBITOR” (Hangzhou Innogate Pharma Co., Ltd., priority 2023, published 2026)

Tested on: Jurkat cells
Experiment: Inhibition of Jurkat cell proliferation (CellTiter-Glo, 72 hours)
Format: cell-based
Details: Homo sapiens, Jurkat, 72 h, read-out: Jurkat (IC50, nM)
Procedure: Select Jurkat cells in good growth condition and digest them with trypsin. Add fresh culture medium, mix thoroughly, and centrifuge at 1000 rpm for 5 minutes. Seed the cells into a 96-well plate at a density of 10,000 cells per well, and incubate overnight in a 37° C. incubator. On the following day, take out of the culture plate and treat the cells with compounds prepared in a five-fold serial dilution. Return the plate to the 37° C. incubator and continue incubation for 72 hours.
After incubation, bring out the cell culture plate and equilibrate it to room temperature. Add 100 μL of CellTiter-Glo reagent to each well, shake in the dark for 2 minutes, and incubate for 10 minutes. Measure the luminescence using an Enspire plate reader. Calculate the inhibition rate using the following formula: Inhibition rate (%)=(1−(RLU_compound−RLU_blank)/(RLU_DMSO−RLU_blank))×100%. Plot the dose-response curve and calculate the IC50 value using XLFit.
In the case of `CCOc1cncc(-c2ccc(NC(=O)C3(c4ccnc(NS(=O)(=O)C5CC5)n4)CCC(=CCN(C)C)CC3)nc2)n1` (centres unmarked) [Compound 15], the IC50 is reported as < 50 nM.

Same assay, conditions: Homo sapiens; Jurkat cells, 72 hours, CellTiter-Glo; read-out: Jurkat (IC50)
In the case of `CCOc1cncc(-c2ccc(NC(=O)C3(c4ccnc(NS(=O)(=O)C5CC5)n4)CCC(=C(F)F)CC3)nc2)n1` (centres unmarked) [Compound 1], the IC50 is reported as < 30 nM.
In the case of `CCOc1cncc(-c2ccc(NC(=O)C3(c4ccnc(NS(=O)(=O)C5CC5)n4)CCC(=CF)CC3)nc2)n1` (centres unmarked) [Compound 10], the IC50 is reported as < 30 nM.
In the case of `CCOc1cncc(-c2ccc(NC(=O)C3(c4ccnc(NS(=O)(=O)C5CC5)n4)CCC(=CCN4CCN(C)CC4)CC3)nc2)n1` (centres unmarked) [Compound 13], the IC50 is reported as < 50 nM.
For `CCOc1cncc(-c2ccc(NC(=O)C3(c4ccnc(NS(=O)(=O)C5CC5)n4)CC(=CC(=O)OC)C3)nc2)n1` (centres unmarked) [Compound 14], the IC50 was < 30 nM.
In the case of `CCOc1cncc(-c2ccc(NC(=O)C3(c4ccnc(NS(=O)(=O)C5CC5)n4)CCC(=CCN4CCCC4)CC3)nc2)n1` (centres unmarked) [Compound 16], the IC50 is reported as < 50 nM.
In the case of `CCOc1cncc(-c2ccc(NC(=O)C3(c4ccnc(NS(=O)(=O)C5CC5)n4)CCC(=CCNC(C)=O)CC3)nc2)n1` (centres unmarked) [Compound 22], the IC50 is reported as < 30 nM.
With `CCOc1cncc(-c2ccc(NC(=O)C3(c4ccnc(NS(=O)(=O)C5CC5)n4)CCC(=CCNS(C)(=O)=O)CC3)nc2)n1` (centres unmarked) [Compound 23] the IC50 was < 50 nM.
With `C=CC(=O)N1CCC(C(=O)Nc2ccc(-c3cncc(OCC)n3)cn2)(c2ccnc(NS(=O)(=O)C3CC3)n2)CC1` [Compound 26] the IC50 was < 30 nM.
For `CCOc1cncc(-c2ccc(NC(=O)C3(c4ccnc(NS(=O)(=O)C5CC5)n4)CCC(=CCN4CC(O)C4)CC3)nc2)n1` (centres unmarked) [Compound 27], the IC50 was < 100 nM.
For `CCOc1cncc(-c2ccc(NC(=O)C3(c4ccnc(NS(=O)(=O)C5CC5)n4)CCC(=CCN4CC(OC)C4)CC3)nc2)n1` (centres unmarked) [Compound 28], the IC50 was < 15 nM.
With `CCOc1cncc(-c2ccc(NC(=O)C3(c4ccnc(NS(=O)(=O)C5CC5)n4)CCC(=CCN(C)CCOC)CC3)nc2)n1` (centres unmarked) [Compound 29] the IC50 was < 30 nM.

Target: T1, hCTPS1 enzyme (Homo sapiens, UniProt P17812)
T1 sequence (P17812 1-591): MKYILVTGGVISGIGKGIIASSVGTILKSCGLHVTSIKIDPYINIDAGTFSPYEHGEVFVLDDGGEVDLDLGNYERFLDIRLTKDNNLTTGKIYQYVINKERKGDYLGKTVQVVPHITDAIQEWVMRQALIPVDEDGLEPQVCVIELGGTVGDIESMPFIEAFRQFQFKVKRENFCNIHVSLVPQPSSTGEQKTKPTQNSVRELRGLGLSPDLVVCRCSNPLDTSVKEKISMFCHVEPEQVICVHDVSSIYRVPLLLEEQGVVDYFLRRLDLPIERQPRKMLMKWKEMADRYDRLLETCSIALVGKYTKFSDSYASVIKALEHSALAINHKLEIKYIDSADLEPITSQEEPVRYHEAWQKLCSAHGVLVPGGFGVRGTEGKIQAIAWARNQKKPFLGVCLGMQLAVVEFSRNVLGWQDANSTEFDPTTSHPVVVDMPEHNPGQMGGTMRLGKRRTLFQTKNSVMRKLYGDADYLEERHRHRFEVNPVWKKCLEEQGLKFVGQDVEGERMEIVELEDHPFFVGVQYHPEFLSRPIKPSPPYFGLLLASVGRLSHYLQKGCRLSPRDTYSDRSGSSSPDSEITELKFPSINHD
Experiment: Inhibition of CTPS1 enzyme activity (ADP-Glo method)
Format: biochemical
Details: hCTPS1, 90 min reaction at 25° C.
Procedure: The enzyme activity of CTPS1 was tested using the ADP-Glo method. Compounds were serially diluted in DMSO with 3-fold gradients across ten concentrations. Transfer 0.1 μL of diluted compound to a 384-well plate, centrifuge at 1000 rpm for 1 min. Add 2.5 μL of hCTPS1 enzyme working solution, centrifuge at 1000 rpm for 1 min, and incubate at 25° C. for 10 min. Add 2.5 μL of ATP & UTP solution and incubate at 25° C. for 10 min. Add 5 μL of substrate solution to initiate the reaction and incubate at 25° C. for 90 min. Add 10 μL of ADP-Glo solution to the 384-well plate, centrifuge at 1000 rpm for 1 min, incubate at 25° C. for 40 min, add 20 μL of detection solution, centrifuge at 1000 rpm for 1 min, and incubate at 25° C. for 60 min. […] were read using a BMG microplate reader. Inhibition rate (%) was calculated as follows: Inhibition rate (%)=[(DMSO control well signal−Compound well signal)/(DMSO control well signal−Blank control well signal)]×100%. IC50 values for compounds were analyzed by nonlinear regression in XLFit 5.5.0 software using the formula: Y=Bottom+(Top−Bottom)/(1+10^((LogIC50−X)*HillSlope)) where Y is the inhibition rate and X is the log value of compound concentration.
For `CCOc1cncc(-c2ccc(NC(=O)C3(c4ccnc(NS(=O)(=O)C5CC5)n4)CCC(=C(F)F)CC3)nc2)n1` (centres unmarked) [Compound 1], the IC50 was < 25 nM.
For `CCOc1cncc(-c2ccc(NC(=O)C3(c4ccnc(NS(=O)(=O)C5CC5)n4)CCC(=CF)CC3)nc2)n1` (centres unmarked) [Compound 10], the IC50 was < 25 nM.
In the case of `CCOc1cncc(-c2ccc(NC(=O)C3(c4ccnc(NS(=O)(=O)C5CC5)n4)CCC(=CCN4CCN(C)CC4)CC3)nc2)n1` (centres unmarked) [Compound 13], the IC50 is reported as < 50 nM.
With `CCOc1cncc(-c2ccc(NC(=O)C3(c4ccnc(NS(=O)(=O)C5CC5)n4)CC(=CC(=O)OC)C3)nc2)n1` (centres unmarked) [Compound 14] the IC50 was < 50 nM.
With `CCOc1cncc(-c2ccc(NC(=O)C3(c4ccnc(NS(=O)(=O)C5CC5)n4)CCC(=CCN(C)C)CC3)nc2)n1` (centres unmarked) [Compound 15] the IC50 was < 100 nM.
In the case of `CCOc1cncc(-c2ccc(NC(=O)C3(c4ccnc(NS(=O)(=O)C5CC5)n4)CCC(=CCN4CCCC4)CC3)nc2)n1` (centres unmarked) [Compound 16], the IC50 is reported as < 50 nM.
With `CCOc1cncc(-c2ccc(NC(=O)C3(c4ccnc(NS(=O)(=O)C5CC5)n4)CCC(=CCNC(C)=O)CC3)nc2)n1` (centres unmarked) [Compound 22] the IC50 was < 50 nM.
With `CCOc1cncc(-c2ccc(NC(=O)C3(c4ccnc(NS(=O)(=O)C5CC5)n4)CCC(=CCNS(C)(=O)=O)CC3)nc2)n1` (centres unmarked) [Compound 23] the IC50 was < 50 nM.
With `C=CC(=O)N1CCC(C(=O)Nc2ccc(-c3cncc(OCC)n3)cn2)(c2ccnc(NS(=O)(=O)C3CC3)n2)CC1` [Compound 26] the IC50 was < 50 nM.
For `CCOc1cncc(-c2ccc(NC(=O)C3(c4ccnc(NS(=O)(=O)C5CC5)n4)CCC(=CCN4CC(O)C4)CC3)nc2)n1` (centres unmarked) [Compound 27], the IC50 was < 50 nM.
For `CCOc1cncc(-c2ccc(NC(=O)C3(c4ccnc(NS(=O)(=O)C5CC5)n4)CCC(=CCN4CC(OC)C4)CC3)nc2)n1` (centres unmarked) [Compound 28], the IC50 was < 50 nM.
In the case of `CCOc1cncc(-c2ccc(NC(=O)C3(c4ccnc(NS(=O)(=O)C5CC5)n4)CCC(=CCN(C)CCOC)CC3)nc2)n1` (centres unmarked) [Compound 29], the IC50 is reported as < 100 nM.

Tested on: not listed separately
Experiment: in vivo
Design: species or system SD rats
Details: male, SD, rat, po, 3 mg/kg
Procedure: Instrumentation: SCIEX Triple Quad 6500+ triple quadrupole liquid chromatography-mass spectrometry system (LC-MS/MS), operating software is Analyst 1.7.2 (Applied Biosystems, USA); ExionLC liquid chromatography system; Microsoft Excel was used for data calculation and processing. Pharmacokinetic parameters were calculated using the statistical moment method with WinNonlin 8.2 software. Key kinetic parameters included Tmax, T1/2, Cmax, AUC0-24 h etc. Column: Synergi 4 μm Fusion-RP 80 Å Luna C18 2 mm*50 mm, 4 μm; Column temperature: 40° C.; Mobile phase A: Water (0.1% formic acid); Mobile phase B: Acetonitrile; Flow rate: 0.8 mL/min; Gradient elution is adopted, the elution gradient is 0.10 min: 15% B; 1.60 min: 95% B; 1.90 min: 95% B; 1.91 min: 15% B; 2.20 min: 15% B. Injection volume: 1 μL.
Animals: 3 male SD rats with a weight range of 200-220 g were purchased and kept in the laboratory of the Experimental Animal Center for 3 days and then used. They were fasted for 12 hours predose and 4 hours after dosing. Drinking water was free during the test. After the rats were gavage, blood samples were taken according to the established time point.
Solvent: 0.4% ethanol+0.4% Tween80+99.2% (0.5% methylcellulose M450). Preparation of the solution for intragastric administration: Compounds were accurately weighed and added to the solvent. The mixture was then subjected to vortex mixing and sonication until a homogeneous suspension was achieved, thereby preparing medicinal solutions of the desired concentrations.
Compound samples: Typically, multiple structurally analogous compounds (with molecular weights differing by more than 2 units) were accurately weighed and administered together (cassette PK). This approach allows for the simultaneous screening of multiple compounds and comparison of their oral absorption rates. Single compound administration was also employed to study the pharmacokinetics of drug samples in rats.
After intragastric administration, blood was collected from the jugular vein at 0.25, 0.5, 1, 2, 4, 8, 10 and 24 hours. Transfer 20 μL of plasma sample (for blank samples and internal standard blank samples, add 20 μL of blank plasma) to a 1.5 mL centrifuge tube, add 200 μL of internal standard solution (50% methanol in acetonitrile (concentration 100 ng/mL)) (for Double blank samples, add 200 μL of 50% methanol in acetonitrile solution). Vortex the samples for 5 minutes, then centrifuge at 14000 rpm and 4° C. for 5 minutes. Transfer 80 μL and add to 80 μL of water, mix uniformly, and submit for LC-MS/MS analysis.
The compounds were accurately weighed to prepare different concentrations, and quantitative analysis on mass spectrometry was performed to establish a standard curve, and then the concentration of the above-mentioned compound in the plasma was tested to obtain its concentration at different time points. All measurement data were collected and processed by relevant software, and the statistical moment method was used to calculate the pharmacokinetic parameters (mainly including kinetic parameters Tmax, T1/2, Cmax, AUC0-24 h etc).
For `CCOc1cncc(-c2ccc(NC(=O)C3(c4ccnc(NS(=O)(=O)C5CC5)n4)CCC(=C(F)F)CC3)nc2)n1` (centres unmarked) [Compound 1], the AUC(0-t) was 68800 ng·h/mL, the Cmax was 11300 ng/mL and the Tmax was 0.83 h. The half-life was 4.98 h.
`CCOc1cncc(-c2ccc(NC(=O)C3(c4ccnc(NS(=O)(=O)C5CC5)n4)CCC(=CF)CC3)nc2)n1` (centres unmarked) [Compound 10] gave an AUC(0-t) of 87200 ng·h/mL, a Cmax of 9330 ng/mL and a Tmax of 3.33 h. The half-life was 4.95 h.
For `CCOc1cncc(-c2ccc(NC(=O)C3(c4ccnc(NS(=O)(=O)C5CC5)n4)CCC(=CCNC(C)=O)CC3)nc2)n1` (centres unmarked) [Compound 22], the AUC(0-t) was 137 ng·h/mL, the Cmax was 177 ng/mL and the Tmax was 0.25 h. The half-life was 1.64 h.
`C=CC(=O)N1CCC(C(=O)Nc2ccc(-c3cncc(OCC)n3)cn2)(c2ccnc(NS(=O)(=O)C3CC3)n2)CC1` [Compound 26] gave an AUC(0-t) of 288 ng·h/mL, a Cmax of 118 ng/mL and a Tmax of 0.5 h. It also gave a half-life of 1.84 h.
In the case of `CCOc1cncc(-c2ccc(NC(=O)C3(c4ccnc(NS(=O)(=O)C5CC5)n4)CCC(=CCN4CC(OC)C4)CC3)nc2)n1` (centres unmarked) [Compound 28], the AUC(0-t) is reported as 46.7 ng·h/mL, the Cmax is reported as 33.1 ng/mL and the Tmax is reported as 0.25 h. The half-life was 1.8 h.
